# Data taken from patent US20170057955A1, “Pyridopyrimidinone Compounds for Modulating the Catalytic Activity of Histone Lysine Demethylases (KDMs)” (Dong-A Socio Holdings Co., Ltd., priority 2015, published 2017).
# Target: T1, Recombinant human JARID1B/KDM5B (Homo sapiens, UniProt Q9UGL1)
# T1 construct: purchased Active Motif 31432; host or cells: Sf9 insect cells
# Experiment: LANCE Ultra TR-FRET JARID1B (KDM5B) demethylase inhibition assay
# Assay type: biochemical
# Conditions: 0.1 uM of test-compounds, FLAG-JARID1B, 500 nM biotinylated H3K4me3 peptide substrate, 30 min at room temperature
# Text: FLAG-tagged JARID1B (also known as KDM5B) protein was screened against 49 compounds. For this compound screening, LANCE Ultra time-resolved fluorescence resonance energy transfer (TR-FRET) assay was employed using a europoium (Eu)-labeled antibody that can specifically recognize mono- or dimethylated peptides (H3K4me2/1) and ULight-streptavidin (ULight-SA), a small molecule fluorescent dye. When irradiated at 340 nm, the energy from the Eu donor is transferred to the ULight acceptor dye which, in turn, emits light primarily at 665 nm. The ratio between the intensity of primary emission at 665 nm and that of secondary emission at […] was used to quantify the level of lysine methylation. As JARID1B removes more methyl moieties from tri-methylated substrate peptides (H3K4me3), the ratio increases until the enzyme reaction is terminated. In case, therefore, the compounds disrupt the enzymatic activity completely, the ratio becomes equal to a background value.
# Recombinant human JARID1B/KDM5B (accession number NP_006609) of molecular weight 179.9 KDa was expressed in Sf9 insect cells and contains an N-terminal FLAG tag. The enzyme was obtained from Active Motif (Catalog No. 31432). The tri-methylated histone substrate peptide of purity greater than 95% was a synthetic peptide in which the first 21 amino acids correspond to the human histone H3 sequence with three extra amino acids and a biotin motif (GGK-biotin) linked to the C-terminus [sequence: ART-K(Me3)-QTARKSTGGKAPRKQLA-GGK-biotin-OH], (AnaSpec, Fremont, Calif. Catalog. No. ANA-1413). The reference inhibitor compound tranylcypromine (or trans-2-phenylcyclopropylamine hydrochloride, also known as, 2-PCPA) was purchased from Sigma (St. Louis, Mo. Cat. no. P8511). ULight-labeled streptavidin (ULight-SA, Catalog no. TRF0102), Eu-W1024-labeled anti-methyl-Histone H3 Lysine 4 (H3K4me1-2) Antibody (Catalog no. TRF0402), and LANCE detection buffer 10× (Catalog no. CR97-100) were obtained from PerkinElmer (Montreal, Quebec, Canada). The TR-FRET experiments were carried out in white, low-volume 384-wellplates purchased from PerkinElmer (ProxiPlate_-384 Plus, Catalog no. 6008280).
# The TR-FRET signal was measured in the presence both of the bio-H3K4me3 peptide and FLAG-JARID1B by detecting any H3K4me2/1 peptide produced in the assay system. Assays using only the bio-H3K4me2 peptide were served as a positive control. Robust enzymatic progressions were observed by using JARID1B at concentrations ranging from 10 to 30 nM. In a typical TR-FRET experiment, JARID1B was pre-incubated with or without 0.1 uM of test-compounds (containing 1% DMSO final) for 5 min. The enzymatic reactions were initiated by the addition of 500 nM biotinylated H3K4me3 peptide substrate plus 500 uM of 2-OG 25 uM Fe(II) and 2 mM ascorbate. The reaction buffer also contained 50 mM Hepes (pH7.5), 0.01% (v/v) Tween 20, and 50 mM NaCl. The reaction mixture was incubated for 30 min at room temperature before reading on an EnVision plate reader (PerkinElmer, Waltham, Mass.).
# T1 sequence (Q9UGL1 whole entry): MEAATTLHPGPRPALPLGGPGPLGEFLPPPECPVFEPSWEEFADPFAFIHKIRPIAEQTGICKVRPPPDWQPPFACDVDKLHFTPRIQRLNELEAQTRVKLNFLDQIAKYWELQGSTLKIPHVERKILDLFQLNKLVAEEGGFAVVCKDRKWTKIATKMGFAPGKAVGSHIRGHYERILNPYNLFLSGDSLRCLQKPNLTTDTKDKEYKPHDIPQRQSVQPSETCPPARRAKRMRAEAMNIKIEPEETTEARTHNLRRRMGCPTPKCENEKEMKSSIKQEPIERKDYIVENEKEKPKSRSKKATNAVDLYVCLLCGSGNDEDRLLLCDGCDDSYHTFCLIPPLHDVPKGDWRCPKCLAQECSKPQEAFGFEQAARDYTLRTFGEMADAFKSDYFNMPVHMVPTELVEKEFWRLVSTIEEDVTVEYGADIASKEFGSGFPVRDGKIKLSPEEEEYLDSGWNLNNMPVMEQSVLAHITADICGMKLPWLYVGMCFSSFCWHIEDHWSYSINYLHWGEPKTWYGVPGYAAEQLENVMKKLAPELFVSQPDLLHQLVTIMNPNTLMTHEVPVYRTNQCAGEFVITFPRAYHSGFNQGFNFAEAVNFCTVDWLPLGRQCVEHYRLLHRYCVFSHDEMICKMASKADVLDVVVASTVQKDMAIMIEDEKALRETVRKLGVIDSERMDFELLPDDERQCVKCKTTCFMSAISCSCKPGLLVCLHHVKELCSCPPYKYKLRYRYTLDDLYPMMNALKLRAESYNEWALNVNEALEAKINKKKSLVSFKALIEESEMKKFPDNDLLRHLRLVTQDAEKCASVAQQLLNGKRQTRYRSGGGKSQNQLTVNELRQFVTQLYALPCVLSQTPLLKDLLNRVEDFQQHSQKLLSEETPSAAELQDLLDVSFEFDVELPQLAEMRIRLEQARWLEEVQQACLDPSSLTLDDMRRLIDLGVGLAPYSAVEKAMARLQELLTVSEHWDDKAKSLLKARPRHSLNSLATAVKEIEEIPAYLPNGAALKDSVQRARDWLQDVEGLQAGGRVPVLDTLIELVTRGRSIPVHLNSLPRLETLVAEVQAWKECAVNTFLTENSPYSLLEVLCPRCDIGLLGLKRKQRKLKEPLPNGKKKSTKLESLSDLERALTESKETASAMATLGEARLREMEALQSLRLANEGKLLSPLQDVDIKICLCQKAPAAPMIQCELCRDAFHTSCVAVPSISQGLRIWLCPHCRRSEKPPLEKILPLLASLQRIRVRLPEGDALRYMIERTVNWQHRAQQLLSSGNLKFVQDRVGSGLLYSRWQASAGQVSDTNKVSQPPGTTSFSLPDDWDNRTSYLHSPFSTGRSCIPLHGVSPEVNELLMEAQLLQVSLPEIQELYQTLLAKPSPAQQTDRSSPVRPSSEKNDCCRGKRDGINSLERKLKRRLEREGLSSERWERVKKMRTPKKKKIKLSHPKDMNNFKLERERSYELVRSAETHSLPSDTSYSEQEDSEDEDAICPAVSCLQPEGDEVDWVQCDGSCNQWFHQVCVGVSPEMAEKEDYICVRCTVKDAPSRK
row,SMILES,inhibition at 0.1 µM [%]
1,"CN(C)CCCNc1nc(-c2nccc3c(=O)[nH]cnc23)cs1 [Compound 47, 8-(2-((3-(dimethylamino)propyl)amino)thiazol-4-yl)pyrido[3,4-d]pyrimidin-4(3H)-one]",20 to 50
2,"Nc1nc(-c2nccc3c(=O)[nH]c(COc4ccc(F)c(Cl)c4)nc23)cs1 [Compound 104, 8-(2-aminothiazol-4-yl)-2-((3-chloro-4-fluorophenoxy)methyl) pyrido[3,4-d]pyrimidin-4(3H)-one]",20 to 50
3,"Cc1cccc(-c2cnn(-c3nccc4c(=O)[nH]cnc34)c2)c1 [Compound 1, 8-(4-(m-tolyl)-1H-pyrazol-1-yl)pyrido[3,4-d]pyrimidin-4(3H)-one]",< 20
4,"C[C@@H](O)CNc1nc(-c2nccc3c(=O)[nH]cnc23)cs1 [Compound 40, (R)-8-(2-((2-hydroxypropyl)amino)thiazol-4-yl)pyrido[3,4-d]pyrimidin-4(3H)-one]",≥ 50
5,"O=c1[nH]c(COc2ccc(F)c(Cl)c2)nc2c(-c3csc(NC4CCNCC4)n3)nccc12 [Compound 93, 2-((3-chloro-4-fluorophenoxy)methyl)-8-(2-(piperidin-4-ylamino)thiazol-4-yl)pyrido[3,4-d]pyrimidin-4(3H)-one]",≥ 50
6,"CN1CCC(Nc2nc(-c3nccc4c(=O)[nH]c(COc5ccc(F)c(Cl)c5)nc34)cs2)CC1 [Compound 94, 2-((3-chloro-4-fluorophenoxy)methyl)-8-(2-((1-methylpiperidin-4-yl)amino)thiazol-4-yl)pyrido[3,4-d]pyrimidin-4(3H)-one]",≥ 50
7,"CN1CCN(Cc2ccc(-c3cnn(-c4nccc5c(=O)[nH]cnc45)c3)cc2)CC1 [Compound 2, 8-(4-(4-((4-methylpiperazin-1-yl)methyl)phenyl)-1H-pyrazol-1-yl)pyrido[3,4-d]pyrimidin-4(3H)-one]",< 20
8,"N[C@H]1CC[C@@H](Nc2nc(-c3nccc4c(=O)[nH]cnc34)cs2)CC1 [Compound 57, 8-(2-(((1s,4s)-4-aminocyclohexyl)amino)thiazol-4-yl)pyrido[3,4-d]pyrimidin-4(3H)-one]",20 to 50
9,"O=c1[nH]c(COc2ccc(Cc3ccccc3)cc2)nc2c(-c3nccs3)nccc12 [Compound 66, 2-((4-benzylphenoxy)methyl)-8-(thiazol-2-yl)pyrido[3,4-d]pyrimidin-4(3H)-one]",< 20
10,"O=c1[nH]c(COc2ccc(F)c(Cl)c2)nc2c(-c3ccc(N4CCOCC4)nc3)nccc12 [Compound 78, 2-((3-chloro-4-fluorophenoxy)methyl)-8-(6-morpholinopyridin-3-yl)pyrido[3,4-d]pyrimidin-4(3H)-one]",< 20
11,"O=c1[nH]cnc2c(-c3csc(NCC4CCN(CCO)CC4)n3)nccc12 [Compound 51, 8-(2-(((1-(2-hydroxyethyl)piperidin-4-yl)methyl)amino)thiazol-4-yl)pyrido[3,4-d]pyrimidin-4(3H)-one]",≥ 50

# Results, then the molecule that gave them:
row,inhibition at 0.1 µM [%],SMILES
1,< 20,"CC(C)(c1ccccc1)c1ccc(OCc2nc3c(-c4csc(NCCO)n4)nccc3c(=O)[nH]2)cc1 [Compound 158, 8-(2-((2-hydroxyethyl)amino)thiazol-4-yl)-2-((4-(2-phenylpropan-2-yl)phenoxy)methyl)pyrido [3,4-d]pyrimidin-4(3H)-one]"
2,< 20,"O=c1[nH]c(COc2ccc(C3CCCC3)cc2)nc2c(-c3csc(NCCO)n3)nccc12 [Compound 159, 2-((4-cyclopentylphenoxy)methyl)-8-(2-((2-hydroxyethyl)amino)thiazol-4-yl)pyrido[3,4-d]pyrimidin-4(3H)-one]"
3,< 20,"COCCN1CCC(CNc2nc(-c3nccc4c(=O)[nH]c(COCc5ccccc5)nc34)cs2)CC1 [Compound 154, 2-((benzyloxy)methyl)-8-(2-(((1-(2-methoxyethyl)piperidin-4-yl)methyl)amino)thiazol-4-yl)pyrido[3,4-d]pyrimidin-4(3H)-one]"
4,≥ 50,"COCCNc1nc(-c2nccc3c(=O)[nH]c(COc4ccc(F)c(Cl)c4)nc23)cs1 [Compound 86, 2-((3-chloro-4-fluorophenoxy)methyl)-8-(2-((2-methoxyethyl)amino)thiazol-4-yl)pyrido[3,4-d]pyrimidin-4(3H)-one]"
5,< 20,"O=c1[nH]c(COCc2ccccc2)nc2c(-c3csc(NCC4CCN(Cc5ccccc5)CC4)n3)nccc12 [Compound 145, 2-((benzyloxy)methyl)-8-(2-(((1-benzylpiperidin-4-yl)methyl)amino)thiazol-4-yl)pyrido[3,4-d]pyrimidin-4(3H)-one]"
6,< 20,"O=c1[nH]c(COc2ccc(F)c(Cl)c2)nc2c(-c3csc(NCCc4ccc(Cl)c(Cl)c4)n3)nccc12 [Compound 108, 2-((3-chloro-4-fluorophenoxy)methyl)-8-(2-((3,4-dichlorophenethyl)amino)thiazol-4-yl)pyrido[3,4-d]pyrimidin-4(3H)-one]"
7,< 20,"O=c1[nH]c(COc2ccc(F)c(Cl)c2)nc2c(-c3csc(NCCc4ccccc4Oc4ccccc4)n3)nccc12 [Compound 110, 2-((3-chloro-4-fluorophenoxy)methyl)-8-(2-((2-phenoxyphenethyl)amino)thiazol-4-yl)pyrido[3,4-d]pyrimidin-4(3H)-one]"
8,< 20,"CN1CCCC1CCNc1nc(-c2nccc3c(=O)[nH]c(COCc4ccccc4)nc23)cs1 (stereo not drawn) [Compound 152, 2-((benzyloxy)methyl)-8-(2-((2-(1-methylpyrrolidin-2-yl)ethyl)amino)thiazol-4-yl)pyrido[3,4-d]pyrimidin-4(3H)-one]"
9,20 to 50,"O=c1[nH]c(COc2ccc(F)c(Cl)c2)nc2c(-c3csc(NC4CCN(Cc5ccccc5)C4)n3)nccc12 (stereo not drawn) [Compound 107, 8-(2-((1-benzylpyrrolidin-3-yl)amino)thiazol-4-yl)-2-((3-chloro-4-fluorophenoxy)methyl) pyrido[3,4-d]pyrimidin-4(3H)-one]"
10,20 to 50,"C=CCNc1nc(-c2nccc3c(=O)[nH]c(COc4ccc(Cc5ccccc5)cc4)nc23)cs1 [Compound 72, 8-(2-(allylamino)thiazol-4-yl)-2-((4-benzylphenoxy)methyl) pyrido[3,4-d]pyrimidin-4(3H)-one]"
11,< 20,"CC(c1ccccc1)c1nc2c(-c3csc(NCCO)n3)nccc2c(=O)[nH]1 (stereo not drawn) [Compound 141, 8-(2-((2-hydroxyethyl)amino)thiazol-4-yl)-2-(1-phenylethyl)pyrido[3,4-d]pyrimidin-4(3H)-one]"
12,< 20,"C[C@H](O)CNc1nc(-c2nccc3c(=O)[nH]c(-c4cc5ccccc5o4)nc23)cs1 [Compound 168, (S)-2-(benzofuran-2-yl)-8-(2-((2-hydroxypropyl)amino)thiazol-4-yl)pyrido[3,4-d]pyrimidin-4(3H)-one]"
13,≥ 50,"CN(C)CCNc1nc(-c2nccc3c(=O)[nH]c(COc4cc(F)cc(F)c4)nc23)cs1 [Compound 130, 2-((3,5-difluorophenoxy)methyl)-8-(2-((2-(dimethylamino)ethyl)amino)thiazol-4-yl)pyrido[3,4-d]pyrimidin-4(3H)-one]"
14,< 20,"O=c1[nH]c(COCc2ccccc2)nc2c(-c3csc(NCCCO)n3)nccc12 [Compound 147, 2-((benzyloxy)methyl)-8-(2-((3-hydroxypropyl)amino)thiazol-4-yl)pyrido[3,4-d]pyrimidin-4(3H)-one]"
15,20 to 50,"NCCNc1nc(-c2nccc3c(=O)[nH]c(COCc4ccccc4)nc23)cs1 [Compound 149, 8-(2-((2-aminoethyl)amino)thiazol-4-yl)-2-((benzyloxy)methyl)pyrido [3,4-d]pyrimidin-4(3H)-one]"
16,≥ 50,"C[C@@H](O)CNc1nc(-c2nccc3c(=O)[nH]c(COc4ccc(F)c(Cl)c4)nc23)cs1 [Compound 83, (R)-2-((3-chloro-4-fluorophenoxy)methyl)-8-(2-((2-hydroxypropyl)amino)thiazol-4-yl)pyrido[3,4-d]pyrimidin-4(3H)-one]"
